Assay: xn = mol fraction of the nth substance listed

CCC(C)=O + c1ccccc1
Settings	viscosity [mPa·s]
293.15 K, 101 kPa, x1 = 0.2	0.569
293.15 K, 101 kPa, x1 = 0.4	0.511
293.15 K, 101 kPa, x1 = 0.5	0.487
293.15 K, 101 kPa, x1 = 0.6	0.471
293.15 K, 101 kPa, x1 = 0.8	0.435
298 K, 101.33 kPa, x2 = 0.1513	0.3919
298 K, 101.33 kPa, x2 = 0.2663	0.4141
298 K, 101.33 kPa, x2 = 0.2941	0.4175
298 K, 101.33 kPa, x2 = 0.4321	0.4408
298 K, 101.33 kPa, x2 = 0.5597	0.4674
298 K, 101.33 kPa, x2 = 0.6057	0.4775
298 K, 101.33 kPa, x2 = 0.7302	0.5097
298 K, 101.33 kPa, x2 = 0.8777	0.5571
298.15 K, 101 kPa, x2 = 0.106	0.4072
298.15 K, 101 kPa, x2 = 0.197	0.4173
298.15 K, 101 kPa, x2 = 0.3	0.4324
298.15 K, 101 kPa, x2 = 0.4	0.4487
298.15 K, 101 kPa, x2 = 0.5	0.4672
298.15 K, 101 kPa, x2 = 0.615	0.4908
298.15 K, 101 kPa, x2 = 0.694	0.508
298.15 K, 101 kPa, x2 = 0.793	0.5355
298.15 K, 101 kPa, x2 = 0.895	0.5683
299.15 K, 101.3 kPa, x2 = 0.098	0.41
299.15 K, 101.3 kPa, x2 = 0.198	0.425
299.15 K, 101.3 kPa, x2 = 0.298	0.443
299.15 K, 101.3 kPa, x2 = 0.398	0.455
299.15 K, 101.3 kPa, x2 = 0.498	0.474
299.15 K, 101.3 kPa, x2 = 0.599	0.497
299.15 K, 101.3 kPa, x2 = 0.699	0.519
299.15 K, 101.3 kPa, x2 = 0.799	0.546
299.15 K, 101.3 kPa, x2 = 0.899	0.584
303.15 K, 101 kPa, x1 = 0.1023	0.538
303.15 K, 101 kPa, x1 = 0.2	0.498
303.15 K, 101 kPa, x1 = 0.2042	0.509
303.15 K, 101 kPa, x1 = 0.395	0.467
303.15 K, 101 kPa, x1 = 0.4	0.454
303.15 K, 101 kPa, x1 = 0.5	0.434
303.15 K, 101 kPa, x1 = 0.5129	0.444
303.15 K, 101 kPa, x1 = 0.6	0.42
303.15 K, 101 kPa, x1 = 0.6822	0.42
303.15 K, 101 kPa, x1 = 0.8	0.391
303.15 K, 101 kPa, x1 = 0.853	0.396
307.35 K, 101.33 kPa, x1 = 0.0925	0.501
307.35 K, 101.33 kPa, x1 = 0.2405	0.462
307.35 K, 101.33 kPa, x1 = 0.3178	0.446
307.35 K, 101.33 kPa, x1 = 0.4477	0.424
307.35 K, 101.33 kPa, x1 = 0.5084	0.41
307.35 K, 101.33 kPa, x1 = 0.616	0.394
307.35 K, 101.33 kPa, x1 = 0.7356	0.378
308.15 K, 101 kPa, x1 = 0.2	0.471
308.15 K, 101 kPa, x1 = 0.4	0.431
308.15 K, 101 kPa, x1 = 0.5	0.414
308.15 K, 101 kPa, x1 = 0.6	0.401
308.15 K, 101 kPa, x1 = 0.8	0.373
318.15 K, 101 kPa, x1 = 0.2	0.421
318.15 K, 101 kPa, x1 = 0.4	0.388
318.15 K, 101 kPa, x1 = 0.5	0.373
318.15 K, 101 kPa, x1 = 0.6	0.362
318.15 K, 101 kPa, x1 = 0.8	0.339

O=C(O)c1ccccc1 + CO
viscosity [mPa·s]
Settings	298.15 K	303.15 K	308.15 K	313.15 K	318.15 K
101 kPa, x1 = 0.15	–	1.196	–	–	0.9466
101 kPa, x1 = 0.151	1.311	1.196	1.098	1.014	0.9466
101 kPa, x1 = 0.16	–	1.29	–	–	1.002
101 kPa, x1 = 0.179	–	1.36	1.25	1.147	1.053
101 kPa, x1 = 0.18	–	1.36	–	–	1.053
101 kPa, x1 = 0.2	–	–	–	–	1.133
101.33 kPa, x1 = 0.15	1.311	1.196	1.098	1.014	0.9466
101.33 kPa, x1 = 0.1514	–	1.196	–	–	0.9466
101.33 kPa, x1 = 0.1626	–	1.29	–	–	1.002
101.33 kPa, x1 = 0.1788	–	1.36	–	–	1.053
101.33 kPa, x1 = 0.18	–	1.36	1.25	1.147	1.053
101.33 kPa, x1 = 0.1961	–	–	–	–	1.133

COC(C)=O + CC#N
303.15 K, 101.33 kPa
Settings	viscosity [mPa·s]
x2 = 0.1087	0.3472
x2 = 0.1994	0.3482
x2 = 0.3009	0.3485
x2 = 0.4037	0.3481
x2 = 0.4994	0.3474
x2 = 0.5996	0.3461
x2 = 0.7019	0.3429
x2 = 0.7979	0.3376
x2 = 0.9006	0.3322

From the CheMixHub viscosity set
